This is an account of results in patent US20260297105A1, “RAF-MEK PROTEIN COMPLEX MODULATORS AND METHODS OF USE THEREOF” (GANDEEVA THERAPEUTICS, INC., priority 2023, published 2026).

For the first assay, the target named is T1, MEK1 (Homo sapiens, UniProt Q02750).
T1 construct: purchased SignalChem M02-14H
T1 sequence (Q02750 whole entry): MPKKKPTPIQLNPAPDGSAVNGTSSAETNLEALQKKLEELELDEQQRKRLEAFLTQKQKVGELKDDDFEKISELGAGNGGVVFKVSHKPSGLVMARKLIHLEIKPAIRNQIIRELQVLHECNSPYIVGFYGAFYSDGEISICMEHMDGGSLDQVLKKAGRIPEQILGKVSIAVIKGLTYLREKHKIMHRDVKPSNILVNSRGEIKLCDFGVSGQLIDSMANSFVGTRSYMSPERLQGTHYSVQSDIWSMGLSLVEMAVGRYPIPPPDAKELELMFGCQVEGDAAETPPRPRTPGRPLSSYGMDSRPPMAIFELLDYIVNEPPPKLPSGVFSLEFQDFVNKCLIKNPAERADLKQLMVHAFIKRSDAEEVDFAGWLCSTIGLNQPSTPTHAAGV
T1 sequence (P15056 445-723 partner limits assumed): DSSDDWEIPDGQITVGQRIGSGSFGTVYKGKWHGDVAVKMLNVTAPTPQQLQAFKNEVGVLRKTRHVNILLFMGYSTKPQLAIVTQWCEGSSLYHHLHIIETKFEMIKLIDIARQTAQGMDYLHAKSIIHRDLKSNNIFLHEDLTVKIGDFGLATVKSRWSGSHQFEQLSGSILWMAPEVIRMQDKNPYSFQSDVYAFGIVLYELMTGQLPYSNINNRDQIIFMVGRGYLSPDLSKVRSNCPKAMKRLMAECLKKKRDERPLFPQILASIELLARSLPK
Kind of assay: MEK1 kinase cascade assay (ADP-Glo), inhibition of MEK1 kinase activity. The conditions noted are these: 25 nM BRAF, 6.25 nM MEK1, 0.5 μM ERK, 1 mM ATP; 20 min preincubation, 1 hr at 25° C.; read-out: BRAF ADP Glo kinase assay V3 (IC50). The format is biochemical. The text has this:
(§1) Protein expression and purification: BRAF (445-723) with N-term His-tag and C-term StrepII tag was expressed using the Expi293 system (ThermoFisher) and purified using Strep-Tactin® XT-Superflow (IBA) chromatography. ERK1 (full-length) with N-term His-tag was expressed in Rosetta DE3 cells (Millipore) and purified using HisTrap HP (Cytiva) and Superdex 200 (Cytiva) column chromatography. Full-length MEK1 for TR-FRET assays with N-term His-tag was expressed in BL21DE3 cells (ThermoFisher) and purified using HisTrap HP (Cytiva) and Superdex 200 (Cytiva) column chromatography.
Efficacy of exemplary compounds in inhibition of MEK1 kinase activity: The effect of compound MEK1 inhibition was evaluated using an ADP detection system for kinases, such as the ADP-Glo assay (Promega). The MEK1 kinase cascade assay consisted of 9 μL reaction volumes in 384-well white, opaque Optiplates (PerkinElmer). Compounds were prepared from DMSO stocks in assay buffer (10 mM HEPES pH 7.5, 5 mM MgCl2, 2 mM CHAPS, and 1 mM DTT) and preincubated with 25 nM BRAF for 20 mins at 25° C. prior to addition of 6.25 nM MEK1/0.5 μM ERK/1 mM ATP premix to initiate the kinase reaction. Both BRAF and ERK1 were produced in-house, and MEK1 was purchased from SignalChem (M02-14H). DMSO was kept constant at a final concentration of 1%. After a 1 hr incubation at 25° C., conversion of ATP to ADP was detected using ADP-Glo™ reagents according to the manufacturer's protocol. Luminescence was measured using a CLARIOstar microplate reader (BMG). Percent (%) Inhibition was calculated by normalizing to DMSO control (max) and 1 μM Trametinib (min). % inhibition as a function of compound concentration from 2 replicate wells was fit with a 4-parameter logistic curve equation using GraphPad Prism or CDD Vault to derive IC50 values.
(§2) In this table, for the BRAF ADP Glo kinase assay, “A” indicates IC50 of less than 5 nM; “B” indicates IC50 of between 5 nM to 50 nM; and “C” indicates IC50 of between 50 nM to 500 nM. “D” indicates IC50 of greater than 500 nM. For the BRAF-MEK TR-FRET assay, “A” indicates EC50 of less than 50 nM; “B” indicates EC50 of between 50 nM to 200 nM; and “C” indicates EC50 of between 200 nM to 1 μM. “D′” indicates EC50 of greater than 1 μM. For the AlphaLisa P-ERK assay, “A” indicates IC50 of less than 1 nM; “B” indicates IC50 of between 1 nM to 10 nM; and “C” indicates IC50 of between 10 nM to 100 nM. “D” indicates IC50 of greater than 100 nM. For the cell viability assay, “A” indicates IC50 of less than 1 nM; “B” indicates IC50 of between 1 nM to 10 nM; and “C” indicates IC50 of between 10 nM to 100 nM. “D” indicates IC50 of greater than 100 nM.
Regarding `CNS(=O)(=O)Nc1nccc(CN2C(=O)Oc3c(ccc(Oc4nccnn4)c3F)C23CCC3)c1F` [Compound 177, 8-fluoro-3-{[3-fluoro-2-(methylaminosulfonylamino)-4-pyridyl]methyl}-7-(1,2,4-triazin-3-yloxy)-2H,3H-spiro[1,3-benzoxazine-4,1′-cyclobutan]-2-one], the half-inhibitory concentration (IC50) is below 0.005 µM.

As for `CNS(=O)(=O)Nc1nccc(CN2C(=O)Oc3c(ccc(Oc4ncco4)c3F)C23CCC3)c1F` [Compound 173, 8-fluoro-3-{[3-fluoro-2-(methylaminosulfonylamino)-4-pyridyl]methyl}-7-(1,3-oxazol-2-yloxy)-2H,3H-spiro[1,3-benzoxazine-4,1′-cyclobutan]-2-one], the half-inhibitory concentration (IC50) was in the range of 0.005 to 0.05 µM.

For `CNS(=O)(=O)Nc1cccc(CN2C(=O)Oc3cc(Oc4ncco4)cc(F)c3[C@@H]2C)c1F` (single isomer, unassigned) [Compound 86, (S)-5-fluoro-3-({2-fluoro-3-(methylsulfamoyl)amino]phenyl}methyl)-4-methyl-7-(1,3-oxazol-2-yloxy)-3,4-dihydro-2H-1,3-benzoxazin-2-one or (R)-5-fluoro-3-({2-fluoro-3-(methylsulfamoyl)amino]phenyl}methyl)-4-methyl-7-(1,3-oxazol-2-yloxy)-3,4-dihydro-2H-1,3-benzoxazin-2-one], the IC50 fell in the range of 0.005 to 0.05 µM.

Turning to `CNS(=O)(=O)Nc1cccc(CN2C(=O)Oc3cc(Oc4ncco4)cc(F)c3[C@H]2C)c1F` (single isomer, unassigned) [Compound 87, (R)-5-fluoro-3-({2-fluoro-3-(methylsulfamoyl)amino]phenyl}methyl)-4-methyl-7-(1,3-oxazol-2-yloxy)-3,4-dihydro-2H-1,3-benzoxazin-2-one or (S)-5-fluoro-3-({2-fluoro-3-(methylsulfamoyl)amino]phenyl}methyl)-4-methyl-7-(1,3-oxazol-2-yloxy)-3,4-dihydro-2H-1,3-benzoxazin-2-one], the IC50 lay in the range of 0.05 to 0.5 µM.

`CNS(=O)(=O)Cc1cccc(CN2C(=O)Oc3cc(Oc4cccnn4)ccc3C23COC3)c1F` [Compound 46, 1-(2-fluoro-3-{[2-oxo-7-(pyridazin-3-yloxy)-2,3-dihydrospiro[1,3-benzoxazine-4,3′-oxetan]-3-yl]methyl}phenyl)-N-methylmethanesulfonamide]: the IC50 was in the range of 0.05 to 0.5 µM.

Take `CNS(=O)(=O)Nc1cccc(CN2C(=O)Oc3cc(Oc4ncco4)c(F)cc3[C@@H]2C)c1F` (single isomer, unassigned) [Compound 84, (S)-6-fluoro-3-({2-fluoro-3-(methylsulfamoyl)amino]phenyl}methyl)-4-methyl-7-(1,3-oxazol-2-yloxy)-3,4-dihydro-2H-1,3-benzoxazin-2-one or (R)-6-fluoro-3-({2-fluoro-3-(methylsulfamoyl)amino]phenyl}methyl)-4-methyl-7-(1,3-oxazol-2-yloxy)-3,4-dihydro-2H-1,3-benzoxazin-2-one]: the IC50 lay within 0.005 to 0.05 µM.

Take `CNS(=O)(=O)Nc1cccc(CN2C(=O)Oc3c(ccc(Oc4ncccn4)c3F)C23COC3)c1F` [Compound 88]: the IC50 is above 0.5 µM.

As for `C[C@@H]1c2c(F)cc(Oc3cccnn3)cc2OC(=O)N1Cc1cccc(NS(=O)(=O)C2CC2)c1F` (single isomer, unassigned) [Compound 54], the IC50 lay within 0.05 to 0.5 µM.

Consider `O=C1Oc2cc(Oc3ncco3)c(F)cc2C2(COC2)N1Cc1ccnc(NS(=O)(=O)C2CC2)c1F` [Compound 172, N-(3-fluoro-4-((6-fluoro-7-(oxazol-2-yloxy)-2-oxospiro[benzo[e][1,3]oxazine-4,3′-oxetan]-3(2H)-yl)methyl)pyridin-2-yl)cyclopropanesulfonamide], for which the IC50 is 0.05 to 0.5 µM.

As to `O=C1Oc2cc(Oc3cnccn3)ccc2C2(COC2)N1Cc1cccc(NS(=O)(=O)C2CC2)c1F` [Compound 69, N-(2-fluoro-3-{[2-oxo-7-(pyrazin-2-yloxy)-2,3-dihydrospiro[1,3-benzoxazine-4,3′-oxetan]-3-yl]methyl}phenyl)cyclopropanesulfonamide], the IC50 was 0.05 to 0.5 µM.

In the next assay the test system is BRAF-MEK1. Kind of assay: BRAF-MEK TR-FRET assay, stabilization of MEK1 and BRAF interaction. Conditions: 4 nM BRAF, 10 nM MEK, 100 μM ATP; 1 hr at 25° C.; 60 min; read-out: BRAF-MEK TR-FRET Assay (EC50, fold stabilization). The format is binding.
Source text: as §1
Efficacy of exemplary compounds in stabilization of MEK1 and BRAF interaction: Compound stabilization of BRAF-MEK interaction was evaluated using TR-FRET (Time Resolved Fluorescence Energy Transfer). The FRET assay consisted of His-tagged MEK1 (produced in-house), GST-tagged BRAF (SignalChem, B08-11G), Anti His-Tb Cryptate donor, and Anti GST-XL665 acceptor fluorophores (PerkinElmer) to generate FRET signal upon BRAF-MEK1 binding. Compounds were prepared from DMSO stocks in assay buffer (50 mM Tris pH 7.5, 150 mM NaCl, 1 mM DTT, 0.05% Tween-20, 5 mM MgCl2, and 100 μM ATP) and incubated with 4 nM BRAF and 10 nM MEK for 1 hr at 25° C. 1 ng Anti His-Tb Cryptate/20 ng Anti GST-XL665 premix was then added and incubated for 1 hr at 25° C. TR-FRET was measured using Cytation5 microplate reader (Agilent) using Ex/Em=340/620 nm and Ex/Em=340/665 nm to determine the FRET ratio. Fold stabilization was calculated as FRET signal of treated well/DMSO control. Fold stabilization as a function of compound concentration from 2 replicate wells was fit with a 4-parameter logistic curve equation using GraphPad Prism or CDD Vault to derive EC50 values.
as §2
As to `CNS(=O)(=O)Nc1nccc(CN2C(=O)Oc3cc(Oc4cccnn4)cnc3[C@H]2C)c1F` (stereo in doubt) [Compound 193, 3-{[3-fluoro-2-(methylaminosulfonylamino)-4 pyridyl]methyl}-4-methyl-7-(3-pyridazinyloxy)-3,4-dihydro-2H-1-oxa-3,5 diazanaphthalen-2-one], the EC50 was below 0.05 µM.

As to `CNS(=O)(=O)Nc1nccc(CN2C(=O)Oc3cc(Oc4nccnn4)cnc3[C@@H]2C)c1F` (stereo in doubt) [Compound 199, 3-{[3-fluoro-2-(methylaminosulfonylamino)-4-pyridyl]methyl}-4-methyl-7-(1,2,4-triazin-3-yloxy)-3,4-dihydro-2H-1-oxa-3,5-diazanaphthalen-2-one], the EC50 was 0.05 to 0.2 µM.

Still in this assay, the particulars now being: 4 nM BRAF, 10 nM MEK, 100 μM ATP; 1 hr at 25° C.; read-out: BRAF-MEK TR-FRET Assay (EC50, fold stabilization).
`CNS(=O)(=O)Nc1nccc(CN2C(=O)Oc3c(ccc(Oc4nccnn4)c3F)C23CCC3)c1F` [Compound 177, 8-fluoro-3-{[3-fluoro-2-(methylaminosulfonylamino)-4-pyridyl]methyl}-7-(1,2,4-triazin-3-yloxy)-2H,3H-spiro[1,3-benzoxazine-4,1′-cyclobutan]-2-one]: the EC50 is below 0.05 µM.

For `O=C1Oc2cc(Oc3cccnn3)ccc2C2(CCC2)N1Cc1ccnc(NS(=O)(=O)C2CC2)c1F` [Compound 163, (cyclopropylsulfonyl)[3-fluoro-4-({2-oxo-7-(3-pyridazinyloxy)-2H,3H-spiro[1,3-benzoxazine-4,1′-cyclobutan]-3-yl}methyl)-2-pyridyl]amine], the EC50 is 0.2 to 1 µM.

On to `CNS(=O)(=O)Nc1nccc(CN2C(=O)Oc3c(ccc(Oc4ncco4)c3F)C23CCC3)c1F` [Compound 173, 8-fluoro-3-{[3-fluoro-2-(methylaminosulfonylamino)-4-pyridyl]methyl}-7-(1,3-oxazol-2-yloxy)-2H,3H-spiro[1,3-benzoxazine-4,1′-cyclobutan]-2-one], for which the EC50 is below 0.05 µM.

Regarding `CNS(=O)(=O)Nc1cccc(CN2C(=O)Oc3cc(Oc4ncco4)cc(F)c3[C@@H]2C)c1F` (single isomer, unassigned) [Compound 86, (S)-5-fluoro-3-({2-fluoro-3-(methylsulfamoyl)amino]phenyl}methyl)-4-methyl-7-(1,3-oxazol-2-yloxy)-3,4-dihydro-2H-1,3-benzoxazin-2-one or (R)-5-fluoro-3-({2-fluoro-3-(methylsulfamoyl)amino]phenyl}methyl)-4-methyl-7-(1,3-oxazol-2-yloxy)-3,4-dihydro-2H-1,3-benzoxazin-2-one], the EC50 lay in the range of 0.2 to 1 µM.

Regarding `CNS(=O)(=O)Nc1cccc(CN2Cc3cc(Cl)c(OC(=O)C4CC4)cc3OC2=O)c1F` [Compound 130, 6-chloro-3-(2-fluoro-3-((N-methylsulfamoyl)amino)benzyl)-2-oxo-3,4-dihydro-2H-benzo[e][1,3]oxazin-7-yl cyclopropanecarboxylate], the EC50 lay in the range of 0.05 to 0.2 µM.

For the compound `CNS(=O)(=O)Nc1cccc(CN2Cc3ccc(OC(=O)C4CC4)cc3OC2=O)c1F` [Compound 147, 3-(2-fluoro-3-((N-methylsulfamoyl)amino)benzyl)-2-oxo-3,4-dihydro-2H-benzo[e][1,3]oxazin-7-yl cyclopropanecarboxylate], the EC50 lay in the range of 0.05 to 0.2 µM.

On to `CNS(=O)(=O)Nc1cccc(CN2Cc3cc(Cl)c(OC(=O)C(C)C)cc3OC2=O)c1F` [Compound 129, 6-chloro-3-(2-fluoro-3-((N-methylsulfamoyl)amino)benzyl)-2-oxo-3,4-dihydro-2H-benzo[e][1,3]oxazin-7-yl isobutyrate], for which the EC50 was 0.2 to 1 µM.

As for `CNS(=O)(=O)Nc1nccc(CN2C(=O)Oc3cc(Oc4ncccn4)ccc3C23CCC3)c1F` [Compound 160, 3-{[3-fluoro-2-(methylaminosulfonylamino)-4-pyridyl]methyl}-7-(2-pyrimidinyloxy)-2H,3H-spiro[1,3-benzoxazine-4,1′-cyclobutan]-2-one], the EC50 was in the range of 0.2 to 1 µM.
